From patent US7026458B2, “High light fastness reactive red dyes” (DyStar Textilfarben GbmH & Co. Deutschland KG, priority 2003, dated 2006)

Experiment: Solubility in 90 g/L salt solution at 50° C.
Assay type: physicochemical
Description: 9% w/v solutions of Dyestuff (Ia) and of Dyestuff (5) were prepared at 50° C. and salt added to produce a 90 g/L salt solution. After 30 mins, 4.2% of Dyestuff (Ia) remained in solution whilst only 2.8% of Dyestuff (5) remained in solution. Thus Dyestuff (Ia) is 50% more soluble in 90 g/L salt at 50° C. than Dyestuff (5). This factor can be crucial as dyeings are carried out at high salt concentrations and better salt solubility can avoid problems with unlevel exhaustion onto the fibre from an exhaust dyebath.

With Cc1ccc(Nc2nc(Cl)nc(Nc3ccc(/N=N/c4c(N)c(S(=O)(=O)O)cc5cc(S(=O)(=O)O)cc(O)c45)c(S(=O)(=O)O)c3)n2)c(Nc2nc(Cl)nc(Nc3ccc(/N=N/c4c(N)c(S(=O)(=O)O)cc5cc(S(=O)(=O)O)cc(O)c45)c(S(=O)(=O)O)c3)n2)c1 [Dyestuff (Ia)] the “dyestuff remained in solution” value (9% w/v solution prepared at 50° C., salt added to give 90 g/L salt solution, after 30 mins) was 4.2% and the “more soluble than Dyestuff (5)” value (in 90 g/L salt at 50° C., relative to Dyestuff (5)) was 50%.
